# Measured values as given in patent publication US7790196B2, “Extracellular vesicles from non-pathogenic amoebae useful as vehicle for transferring a molecule of interest to an eukaryotic cell” (Universite Pierre et Marie Curie- Paris VI, priority 2003, dated 2010).
# How the values were obtained:
# Leukemic K562 cells = conditions: Asahi et al., 1995; cited from earlier work
# Dd cells [1] = assay: Vesicle-mediated release of cargo molecule from Dd cells (micro-spectrofluorimetry of “12,000” vesicles); format: cell-based, Dictyostelium discoideum
# Protocol: The capacity of Dd cells to internalise different exogenous molecules was studied. Further, their ability to release vesicles, in particular the “12,000” vesicles, carrying a broad-spectrum of molecules of interest was assessed. Flow cytometry and micro-spectrofluorimetry were used to measure respectively the cell internalisation and the vesicle-mediated release of the fluorescent cargo molecule as a function of incubation time in the growth medium. Growing Dd cells were incubated for different periods of time up to 72 h in the presence of the exogenous molecule. Fractions of the cells were fixed in 2% paraformaldehyde after each one of these increasing incubation times. Simultaneously, the externalised “12,000” vesicles were prepared from aliquots of the growth medium and concentrated (×20). As controls, Dd cells were grown in parallel without the cargo molecule and handled the same. Moreover, cell counting during growth allowed to check for any cytotoxicity of the studied molecule as a function of time. Cell and vesicle samples were kept at 4° C. until measurements.
# Dd cells [2] = assay: Cytotoxicity of the cargo molecule towards growing Dd cells (cell counting during growth); format: cell-based, Dictyostelium discoideum
# Protocol: The growth curve of Dd cells, continuously maintained with HO342 (10 μg/ml) since the initiation of the culture at a density of 3×10^6 cells/ml is shown on FIG. 3a. Images of Dd cells, fixed in 70% MeOH at different times (from 72 h to 216 h), show the aspect of the cells and of their HO342 stained nuclei. Apoptosis might increase as a function of time along the stationary plateau (Tatischeff et al., 2001), and the characteristic much smaller size of apoptotic cells were predominant for the t′216 fixed Dd cells (FIG. 3a).
# The capacity of Dd cells to internalise different exogenous molecules was studied. Further, their ability to release vesicles, in particular the “12,000” vesicles, carrying a broad-spectrum of molecules of interest was assessed. Flow cytometry and micro-spectrofluorimetry were used to measure respectively the cell internalisation and the vesicle-mediated release of the fluorescent cargo molecule as a function of incubation time in the growth medium. Growing Dd cells were incubated for different periods of time up to 72 h in the presence of the exogenous molecule. Fractions of the cells were fixed in 2% paraformaldehyde after each one of these increasing incubation times. Simultaneously, the externalised “12,000” vesicles were prepared from aliquots of the growth medium and concentrated (×20). […]
compound,measurement,setting,value
CCCCCC(=O)c1c(O)c(Cl)c(OC)c(Cl)c1O [DIF],differentiation of K562 cells,Leukemic K562 cells,differentiate and recover the capacity to synthesize haemoglobin
COc1cccc2c1C(=O)c1c(O)c3c(c(O)c1C2=O)C[C@@](O)(C(=O)CO)C[C@@H]3O[C@H]1C[C@H](N)[C@H](O)[C@H](C)O1 [Doxorubicine],release of the molecule into vesicles,Dd cells [1],"also released into “12,000” vesicles"
"CCOc1ccc(-c2nc3ccc(-c4nc5ccc(N6CCN(C)CC6)cc5[nH]4)cc3[nH]2)cc1 [HO342, Hoechst 33342]",cytotoxicity during incubation with Dd cells in the growth medium,"Dd cells [2]; HO342 10 μg/ml, continuously since initiation of culture",absence of cytotoxicity
Cc1cc(O)c2c(=O)c3c(O)cc(O)c4c5c(O)cc(O)c6c(=O)c7c(O)cc(C)c8c1c2c(c34)c(c78)c65 [hypericin],toxicity towards Dd cells,Dd cells [2]; hypericin 25 μM in growth medium,without any apparent toxicity
